One series relates to NCI-446 cells. Put plainly: NCI-446 cell growth inhibition test (MTT assay). In kind it is cell-based, human. Particulars: 72 h. The method, then:
NCI-446 Cell Growth Inhibition Test (MTT Assay)
II. Reagents and Consumable Materials Culture medium: 90% RPMI1640+10% FBS (fetal calf serum); Pancreatin (0.25% (w/v) solution was formulated with PBS, 0.53 mM of EDTA was added in the formulation); PBS; 96-well culture plate.
(§1) 1. A plate (10 cm) of cells in logarithmic growth phase that were normally cultured was collected;
2. The culture solution was sucked out. The plate was washed with 5 ml of PBS once or twice;
(§2) 3. PBS was sucked out. 1.5 mL of 0.25% pancreatin was added to the plate to infiltrate the cells for 1 min;
(§3) 4. The culture plate was placed in an incubator. Digestion was carried out for about 3 min at 37° C.;
5. 3 mL of complete culture solution was added to the culture plate to stop the digestion. The cells were carefully scoured with micropipette (1 mL) to give a uniform cell suspension. The suspension was implanted into a 96-well cell culture disc by 4000 cells/100 μL per well. The culture plate was incubated overnight under 5% CO2 at 37° C. In day 2, 100 μL of culture solution comprising a compound was added in each well. The plate was further incubated for 72 h under 5% CO2 at 37° C.;
(§4) 6. The culture solution was sucked out;
(§5) 7. 100 μL of serum-free culture solution containing 0.5 mg/mL MTT was added in each well. The plate was incubated for 3 h;
(§6) 8. The culture solution was carefully sucked out;
9. […]
(§7) 10. OD values were determined at 490 nM. […]

Another series has as its system NCI-H460 cells. Put plainly: NCI-H460 cell growth inhibition test (MTT assay). In kind it is cell-based, human. Particulars: NCI-460 cells (NCI-H460 in method), 72 h. The method, then:
NCI-H460 Cell Growth Inhibition Test (MTT Assay)
(§8) II. Reagents and Consumable Materials
Culture medium: 90% RPMI1640+10% FBS (fetal calf serum); Pancreatin (0.25% (w/v) solution was formulated with PBS, 0.53 mM of EDTA was added in the formulation); PBS; 96-well culture plate.
as §1
(§9) 2. The culture solution was sucked out. The plate was washed with 5 mL of PBS once or twice;
as §2, §3
5. 3 mL of complete culture solution was added to the culture plate to stop the digestion. The cells were carefully scoured with micropipette (1 mL) to give a uniform cell suspension. The suspension was implanted into a 96-well cell culture disc by 2000 cells/100 μL per well. The culture plate was incubated overnight under 5% CO2 at 37° C. In day 2, 100 μL of culture solution comprising a compound was added in each well. The plate was further incubated for 72 h under 5% CO2 at 37° C.;
as §4, §5, §6
9. […]
as §7

The test system of a further series is Hep3B cells. Put plainly: Hep3B cell growth inhibition test (SRB assay). Particulars: 72 h. In kind it is cell-based. The method, then:
Hep3B Cell Growth Inhibition Test (SRB Assay)
as §8
Culture medium: 90% RPMI-1640+10% FBS; Pancreatin (0.25% (w/v) solution was formulated with PBS, 0.53 mM of EDTA was added in the formulation); PBS; 96-well culture plate.
as §1, §9
3. 1.5 mL of 0.25% pancreatin was added to the plate to infiltrate the cells;
4. The pancreatin was sucked out. The culture plate was placed in an incubator. Digestion was carried out for about 3 min at 37° C.;
5. 4 mL of complete culture solution was added to the culture plate to stop the digestion. The cells were carefully scoured with micropipette (1 mL) to give a uniform single cell suspension. The suspension was implanted into a 96-well cell culture plate by 5000 cells/100 μL per well. The culture plate was incubated overnight under 5% CO2 at 37° C. In day 2, 100 μL of culture solution comprising a compound was added in each well. The plate was further incubated for 72 h under 5% CO2 at 37° C.;
6. The culture solution was sucked out. 100 uL of TCA fixed cells which were diluted to 10% were added to each well. The plate was kept in a refrigerator for 1 h at 4° C.
7. TCA stationary liquid was sucked out. Each well was washed with 150 μL of ddH2O five times;
8. After the stationary liquid was cleansed, the plate was dried in the air at the room temperature;
9. 60 μL of SRB staining solution was added in each well. The well was stained for 15 min at the room temperature;
10. The SRB staining solution was sucked out. Each well was washed with 150 μL of 1% glacial acetic acid five times;
11. After the SRB staining solution was cleansed, the plate was dried in the air at the room temperature;
12. 100 μL of 10 mM Tris was added in each well. The plate was vibrated to dissolve out SRB;
13. OD values were determined at 570 nM.
IV. Results and Treatments
1. Calculation of Relative Inhibition Ratio The inhibition ratio of the compound on cell growth=(PC−n)/(PC−NC)×100% […]

Another series concerns mice of ICR strain. Put plainly: Assay on MTD (maximum tolerated dose) in vivo of mice. Conditions: for MTD: caudal vein injection, q4d×5 administration regimen; for Mortality Rate (%) / Number of Dead Animals ♂/♀: i.v., 5♂/5♀ per group; for Number of Dead Animals ♂/♀: 5 administrations. The method, then: Assay on MTD (Maxium Tolerated Dose) In Vivo of Mice
Assay on Maxium Tolerated Dose of Compound
Assay animals: mice of ICR strain with a weight of 18-22 g, purchased from Beijing Vital River Laboratories Limited, License SCXK (jing) 2007-0001.
Administration Regimen: each experimental animal was administered with corresponding dosage of tested substance once by injection of caudal vain every three days. Each dosage was initially designed as 5 times of administration. The specific time of administration depended on the conditions of the animals. It should be carefully observed the behavior conditions of the animals within 2 hours after administration. The animal's behavior was observed every 4 hours in the day of administration. The survival conditions and weight of animals were recorded every day and observed for whether abnormality occurred on the body surface thereof. The experimental animals were sacrificed on 14 day after administration and dissected for observation.
I group: (20 mg/kg) group;
II group: (25 mg/kg) group;
III group: (30 mg/kg) group;
IV group: solvent control group;
There were four groups in total. Each group consisted of five male mice and five female mice.
I group: (40 mg/kg) group;
II group: (45 mg/kg) group;
III group: (50 mg/kg) group;
IV group: (55 mg/kg) group;
V group: (60 mg/kg) group;
There were five groups in total. Each group consisted of six male mice and six female mice.
a represents that the experimental animal died immediately after the injection of drug rather than death caused by cytotoxicity.
I group: (30 mg/kg) group;
II group: (40 mg/kg) group;
IV group: (60 mg/kg) group;

The nature of series [1]: Solubility of the compound in water. It counts as physicochemical.

Structures are written as SMILES.

For `COc1cccc2c1C(=O)c1c(O)c3c(c(O)c1C2=O)CC(O)(C(=O)COC(=O)CCC(=O)O)CC3OC1CC(n2cccc2)C(O)C(C)O1` (centres unmarked) [Compound A, 3′-pyrrolyldoxorubicin-14-oxo-succinic acid monoester, reference compound], the figures for the IC50 with NCI-446 cells, with NCI-H460 cells and in the series on Hep3B cells were 234 nM, 21 nM and 444 nM, respectively. The maximum tolerated dose (MTD) entry in the series on mice of ICR strain is “approximately 30 mg/kg”; with mice of ICR strain (molar equivalent), roughly 0.0433 mmol/kg. Moreover, the “Mortality Rate (%)” value is 10% in the series on mice of ICR strain (30 mg/kg, 5 administrations (total 150 mg/kg)); 50% in the series with mice of ICR strain (40 mg/kg, 5 administrations (total 200 mg/kg)); 100% in the series on mice of ICR strain (50 mg/kg, 5 administrations (total 250 mg/kg)); 100% with mice of ICR strain (60 mg/kg, 5 administrations (total 300 mg/kg)). In addition, the “Number of Dead Animals ♂/♀” value was 0/1 with mice of ICR strain (30 mg/kg), 3/2 with mice of ICR strain (40 mg/kg), 5/5 with mice of ICR strain (50 mg/kg) and 5/5 with mice of ICR strain (60 mg/kg).
Regarding `CC(=O)O.COc1cccc2c1C(=O)c1c(O)c3c(c(O)c1C2=O)CC(O)(C(=O)COC(=O)CCC(=O)NCCCN1CCN(C)CC1)CC3O[C@H]1C[C@H](n2cccc2)[C@H](O)[C@H](C)O1` (stereo partly drawn) [Example 81, 10-((3′-(pyrrol-1-yll)-2′,3′,6′-trideoxy-alphal-l-lyxo-hexylpyranyl)oxy)-7,8,9,10-tetrahydro-6,8,11-trihydroxy-13-oxo-14-(4-((3-(4-methylpiperazin-1-yl)propyl)amino)-4-oxo-butyrato)-1-methoxy-5,12-naphthalenedione acetate], the “solubility of the compound in water” value in series [1] is “more than 7 mg/ml”.

These data come from patent US9670242B2, “Tetracyclic anthraquinone derivatives” (Tianjin Hemay Bio-Tech Co., Ltd, priority 2012, dated 2017).
